Laboratory results published in patent EP4310093A1, “AMINO ACID DERIVATIVE, PREPARATION METHOD THEREFOR, AND PHARMACEUTICAL COMPOSITION FOR TREATING HEPATITIS, COMPRISING SAME” (priority 2021, dated 2022).

What was measured:
[1] = test system: HBV; experiment: Inhibition of intracellular HBV virus invasion, Southern blot analysis; assay type: cell-based
Protocol: (§1) In order to evaluate the ability to inhibit intracellular HBV virus entry (invasion), Enzyme-linked immunosorbent assay (ELISA) analysis to measure HBeAg, which is associated with high infectivity as an antigen in the HBV virus core portion, and Southern blot analysis to measure DNA of HBV were performed.
(§2) Specifically, the HepG2-NTCP cell line was cultured on a 6-well plate, incubation was performed overnight, HBV inhibitors were treated at a concentration of 20 µM, and the positive control Myrcludex-B (MyrB) was treated at a concentration of 200 nM, followed by culture for 24 hours. After HBV infection into the cells to make HBV 3000 genome equivalent per ml/cell (Geq/cell), the cell culture medium was replaced (medium changing, MC) a day after the viral infection to remove the virus unattached to cell membranes. In order to measure an amount of virus that entered the cell, medium changing (MC) was performed once more 4 days after viral infection. 2 days after replacement, HBeAg ELISA analysis was performed using a supernatant, and Southern blot analysis was performed with cell pellets.
For the cell pellet obtained by the method of Experimental Example 4-1, Southern blot analysis for measurement of […] DNA was performed using Example 1 (LCA-Ile), Example 44 (LCA-Val), Example 52 (LCA-Tyr), Example 51 (LCA-Ser), Example 55 (LCA-Glu), Example 2 (UDCA-Ile), Example 3 (UDCA-Val), Example 25 (LCA-Val-Trp), Example 10 (DCA-Ile), Comparative Example 1 (LCA), and Comparative Example 2 (UDCA).
First, the cell pellets were pipetted with 100 µl of HEPES lysis buffer (10 mM HEPES, 100 mM NaCl, 1 mM EDTA, 1% NP-40), placed on ice for 20 minutes, and then centrifuged with a centrifuge under the conditions at 4°C and 13000 rpm. After transferring the supernatant only to the new microtube, 4.5 µl of nuclease buffer I (10 mM CaCl2, 12 mM MgCl2, DNase 10 units) was added to carry out a reaction at 37°C for 2 hours, and 40 µl of 26% PEG solution was added, followed by a reaction on ice for 1 hour. After centrifuging with the centrifuge at 4°C and 13000 rpm for 30 minutes, and the supernatant was removed cleanly. After releasing the pellets with 100 µl of nuclease buffer II (10 mM Tris, 8 mM CaCl2, 6mM MgCl2), 287.5 µl of 0.5% SDS buffer (25 mM Tris, 10 mM EDTA, 0.5% SDS, 100 mM NaCl) was added, and 12.5 µl of 20 mg/ml proteinase K was added, followed by a reaction at 37°C for 2 hours. 400 µl of phenol-chloroform-isoamyl alcohol was added, centrifugation was performed at room temperature at 13000 rpm after voltexing, the supernatant was transferred to a new tube, 40 µl of 3 M NaOAc was added, and 800 µl of 100% ethanol was added for inverting, followed by a reaction overnight at -20°C. After performing centrifugation at 4°C and 13000 rpm for 30 minutes, 800 µl of 70% ethanol was added and mixed to the pellet obtained by removing the supernatant, centrifugation was performed at 4°C and 13000 rpm for 10 minutes, and then the supernatant was discarded. The ethanol was dried for 5 minutes to leave only the HBV DNA pellets, and then the pellets were dissolved again in 15 µl of TE buffer (10 mM Tris, 1 mM EDTA). HBV DNA samples were loaded in 1% agarose gel, and electrophoresis was performed. It was then immersed in denature buffer (0.25 N NaOH, 1 M NaCl) for 30 minutes to denature dsDNA of HBV into ssDNA. The DNA in the gel was transferred to a Nylon membrane using a transfer buffer (0.4 M NaOH), the membrane was soaked with a 2X SSC buffer (sigma, cat# 85639) for neutralization, followed by drying in air. The membrane was immersed in a church buffer (10% BSA, 0.5 M EDTA, 1 M NaPi, 20% SDS), and the radioisotopes were hybridized using a Mega prime kit (GE healthcare, RPN1607). After washing three times with washing buffer (2X SSC, 0.1% SDS), measurement was performed using radioisotope measurement equipment, and a relative replication rate (%) to the negative control group (Mock) was calculated and shown.

[2] = test system: Jurkat cell line; experiment: Cytotoxicity, WST-1 cell viability; assay type: cell-based, human; details: 0.2 µM ~ 50 µM, 24 and 48 hours
Protocol: For Example 1 (LCA-Ile), Example 44 (LCA-Val), Example 2 (UDCA-Ile), and Example 3 (UDCA-Val), cytotoxicity was evaluated in the Jurkat cell line, a human T lymphocyte-derived cell line. Jurkat cell lines were seeded at a density of 5 × 10^4 on a 96 well plate for overnight incubation, and each compound was treated at a concentration of 0.2 µM ~ 50 µM for 24 or 48 hours. WST-1, a reagent for measuring cell viability, was loaded at 10 µl/well, and absorbance was measured at 440 nm using a microplate reader 2 hours later. The mean value of negative control (NC) group treated with only DMSO was calculated as 1 and the cytotoxicity for the remaining experimental group was evaluated.

[3] = test system: HBV; experiment: Inhibition of intracellular HBV virus invasion, HBeAg ELISA analysis; assay type: cell-based; details: 20 µM, HepG2-NTCP cell line, HBV 3000 Geq/cell, O.D. at 450 nm
Protocol: as §1, §2
HBeAg ELISA analysis was performed using an HBeAg ELISA kit (sanbio, Wantai HBeAg ELISA, cat#WB-2496) for the supernatant obtained by the method in Experimental Example 4-1.
First, a negative control group (Mock), positive control group (MyrB), and samples according to the present disclosure were loaded, by 50 µl each to be triplicate, onto a 96-well plate coated with capture Ab. In this case, Example 1 (LCA-ILE), Example 44 (LCA-Val), Example 52 (LCA-Tyr), Example 51 (LCA-Ser), Example 55 (LCA-Glu), Example 2 (UDCA-Ile), Example 3 (UDCA-Val), Example 25 (LCA-Val-Trp), Example 10 (DCA-Ile), Comparative Example 1 (LCA), and Comparative Example 2 (UDCA) were used as the sample.
The HRP-conjugated detection antibody was loaded into each well by 50 µl, followed by a reaction at 37°C for 30 minutes. Washing buffer (1X PBS, 0.5% Tween20) was added by 200 µl, and washing was performed 5 times. 50 µl of chromogen solution A and 50 µl of chromogen solution B were added to each well, and a reaction was carried out in the darkness at 37°C for 15 minutes. The stop solution was added to each well by 50 µl each to stop the reaction, and the amount of HBeAg was measured by measuring the absorbance (optical density, O.D.) level in the 450 nm wavelength band.

SMILES: CC[C@@H](C)[C@H](NC(=O)CC[C@@H](C)[C@H]1CC[C@H]2[C@@H]3CC[C@@H]4C[C@H](O)CC[C@]4(C)[C@H]3CC[C@]12C)C(=O)O [Example 1, (2S,3R)-2-((R)-4-((3R,5R,8R,9S,10S,13R,14S,17R)-3-hydroxy-10,13-dimethyl-hexadecahydro-1H-cyclopenta[a]phenanthren-17-yl)pentanamido)-3-methylpentanoic acid]
- amount of HBeAg DNA detected compared to the negative control group (Mock) ([1]; 20 µM, HepG2-NTCP cell line, HBV 3000 Geq/cell): relatively less amount
- activity at 20 µM ([1]; Hepatitis B virus, read-out: relative replication rate of quantified HBeAg DNA to the negative control group (Mock), 20 µM, HepG2-NTCP cell line, HBV 3000 Geq/cell): < 80%
- cytotoxicity [2]: barely observed
- HBeAg absorbance level compared with Comparative Example 1 (LCA) and Comparative Example 2 (UDCA) [3]: lower
- HBeAg absorbance level compared with the negative control group (Mock) [3]: relatively lower
